Data published in publication PMC12388125, “Design, Synthesis, and Pharmacological Activity of the N-(4-(1H-1,2,4-Triazol-1-yl)phenyl)-substituted-amide Derivatives” (Molecules, 2025).
Entries after “also recorded” stand apart in the source; their conditions may differ. Read-outs that look alike come from different tables or passages of the source.

Experiments:
MES-induced seizures [1] = test: animal or person; format: in vivo, Kunming mice; conditions: Mus musculus, ip, doses 30, 100, 300 mg/kg, read-out: MES, dose at which at least one of three animals was protected
Description: (§1) Pharmacological tests were performed using two experimental animal models, MES and scPTZ, which were divided into three dosage groups of 30, 100, and 300 mg/kg, and the anticonvulsant activity of the target compounds 6a–m and 9a–g, after 0.5 and 4 h of administration, respectively, were tested. Carbamazepine, which is effective in the MES model, was chosen as a positive control, and ethosuximide, which is effective in the scPTZ model, was chosen as a positive control. […]
Protection against the spread of
extension component of the seizure. […]

[2] = system: pentylenetetrazole-induced clonic seizures; test: animal or person; format: in vivo, Kunming mice; conditions: for minimal effective dose: doses 30, 100, 300 mg/kg, read-out: scPTZ, dose at which at least one of three animals was protected
Description: as §1
The test compound wa s
Absence of clonic spasms indicated a […]

mice [3] = test: Rotarod (ROT) neurotoxicity test; conditions: doses 100, 300 mg/kg
Description: (§2) The neurotoxicity of the target compounds was tested using the ROT experimental model, which was divided into two dose groups, 100 and 300 mg/kg, and tested after 0.5 and 4 h of administration, respectively.
(§3) The neurotoxicity of the target compounds was determined using the ROT experimental model.
(§4) The neurotoxicity of the compounds wa s measured in mice using the rotarod test. Mice
(§5) we r e trained to stay on an accelerating rotarod (diameter, 3.2 cm) rotating at 10 rpm. Trained
(§6) animals we r e injected with the test compounds (i.p.) and neurotoxicity wa s measured as the
(§7) inability of the animal to maintain equilibrium on the rod for at least 1 min in each of the

mice [4] = test: Elevated plus maze (EPM) test; format: in vivo; conditions: n = 6
From the text: The EPM experiment is a method for evaluating whether experimental animals have an anxiety response. The principle is that, in the face of new things, mice will generate curiosity to explore (open arm), while they have a nature of darkness (closed arm), the conflict behavior between the two occurs between exploration and avoidance, resulting in anxiety. Anxious behavior can be evaluated by comparing the retention time of mice in the open and closed arms.
Flumazenil is a selective BZ antagonist with a chemical structure similar to that of BZs, which acts on central benzodiazepine (BZ) receptors and thus blocks the receptors without producing BZ-like effects.
The apparatus consisted of a black acrylic maze with two opposite open arms (50×10 cm) and two opposite closed arms (50×10×40 cm) disposed like a plus sign with a central square of 10 cm2. Entire maze wa s elevated 50 cm above the floor. The test consisted in placing the rat in the central square of the maze facing one closed arm and allowing it to explore during 5 min. This procedure wa s performed in a quiet and dimly illuminated room. The scores analysed we r e the time spent in open and closed arms, and the number of entries to both […]
widely used as an anxiety index (time spent in open arms relative to the time spent in open […]
and closed arms). […]

mice [5] = conditions: Kunming, mouse, in vivo, 0.5 h
Description: as §2, §3, §4, §5, §6, §7

[6] = system: pentylenetetrazole-induced clonic seizures; parameters: method as in doi:10.1016/j.molstruc.2025.141611; conditions: cited from earlier work; for scPTZ, dose at which at least one of three animals was protected: lead compound of previous study
MES-induced seizures [7] = system: MES-induced seizures; parameters: method as in doi:10.1016/j.molstruc.2025.141611; conditions: cited from earlier work; for MES, dose at which at least one of three animals was protected: lead compound of previous study
mice [8] = system: mice; parameters: method as in doi:10.1016/j.molstruc.2025.141611; conditions: cited from earlier work; for NT (neurotoxicity, ROT): lead compound of previous study
[9] = Mus musculus, sc, 0.5 h after administration
[10] = Mus musculus, sc, 4 h after administration

| SMILES | minimal effective dose (MES-induced seizures [1]; 0.5 h after administration) [mg/kg] | minimal effective dose (MES-induced seizures [1]; 4 h after administration) [mg/kg] | minimal effective dose [2, 9] [mg/kg] | minimal effective dose [2, 10] [mg/kg] | NT (neurotoxicity, ROT), dose at which at least one of three animals showed neurotoxicity (mice [3]; 0.5 h after administration) [mg/kg] | NT (neurotoxicity, ROT), dose at which at least one of three animals showed neurotoxicity (mice [3]; 4 h after administration) [mg/kg] | further results |
| --- | --- | --- | --- | --- | --- | --- | --- |
| CCCCCC(=O)Nc1ccc(-n2cncn2)cc1 [Compound 9d, N-(4-(1H-1,2,4-triazol-1-yl)phenyl)hexanamide] | 30 | 30 | 100 | 100 | >300 | >300 | – |
| CCCCCCC(=O)Nc1ccc(-n2cncn2)cc1 [Compound 9e, N-(4-(1H-1,2,4-triazol-1-yl)phenyl)heptanamide] | 100 | 300 | 300 | > 300 | >300 | >300 | – |
| CCCCCCCC(=O)Nc1ccc(-n2cncn2)cc1 [Compound 9f, N-(4-(1H-1,2,4-triazol-1-yl)phenyl)octanamide] | 100 | 300 | 300 | > 300 | >300 | >300 | – |
| CCCCCCCCC(=O)Nc1ccc(-n2cncn2)cc1 [Compound 9g, N-(4-(1H-1,2,4-triazol-1-yl)phenyl)nonanamide] | 300 | 300 | 300 | > 300 | >300 | >300 | – |
| CN1C(=O)CN=C(c2ccccc2)c2cc(Cl)ccc21 [Diazepam, reference compound] | – | – | – | – | – | – | EPM % of time in open arms vs control (mice [4]; 1 mg/kg): showed a significant difference |
| CCC1(C)CC(=O)NC1=O (centres unmarked) [Ethosuximide, reference compound] | – | – | – | – | – | – | ED50 (scPTZ) ([2]; 0.5 h, value (95% CI)): 94.4 mg/kg; PI (TD50/ED50) scPTZ ([2]; Kunming, mouse, in vivo, 0.5 h): 3.5; ED50 ([2]; Mus musculus, sc, 0.5 h, as given in the text, read-out: ED50 (scPTZ)): 94.4 mg/kg; TD50 (ROT) (mice [5]): 333.7 (362.8–306.9) mg |
| CCOC(=O)c1ncn2c1CN(C)C(=O)c1cc(F)ccc1-2 [Flumazenil, reference compound] | – | – | – | – | – | – | EPM % of time in open arms vs control (mice [4]; 5 mg/kg, listed as FMZ): did not show significant differences; also recorded: did not show a significant difference |
| CCCCCOc1cc(OCCCCC)n2ncnc2n1 [I] | – | – | – | – | – | – | scPTZ, dose at which at least one of three animals was protected ([6]; 0.5 h): 30 mg/kg; scPTZ, dose at which at least one of three animals was protected ([6]; 4 h): 30 mg/kg; ED50 (scPTZ) ([6]; lead compound): 9.5 (10.4–8.8) mg; PI (TD50/ED50) scPTZ ([6]; lead compound): 20.0; MES, dose at which at least one of three animals was protected (MES-induced seizures [7]; 0.5 h): 30 mg/kg; MES, dose at which at least one of three animals was protected (MES-induced seizures [7]; 4 h): 30 mg/kg; ED50 (MES) (MES-induced seizures [7]; lead compound): 11.3 (12.3–10.4) mg; PI (TD50/ED50) MES (MES-induced seizures [7]; lead compound): 16.8; NT (neurotoxicity, ROT) (mice [8]; 0.5 h): >150 mg/kg; NT (neurotoxicity, ROT) (mice [8]; 4 h): >150 mg/kg; TD50 (ROT) (mice [8]; lead compound): 190.7 (207.3–175.4) mg |
